{"source": "patent US20260193254A1", "about": "“2-OXOQUINAZOLINE CRYSTALLINE FORMS” (IDEAYA Biosciences, Inc., priority 2022, published 2026)", "format_in_all_cases": "physicochemical", "key": {"[1]": {"test": "Bulk stability of crystalline forms", "design": "key: Color A: All No change of color", "conditions": "Solid state", "text": "(§1) Solids obtained after bulk stability study were characterized by XRPD and HPLC."}, "[2]": {"test": "Grinding simulation experiments - dry grinding", "protocol": "About 20 mg of Form A, Form D, and Form T were ground manually with a mortar and a pestle for 5 min or 1 min. Potential from transition and degree of crystallinity were evaluated by XRPD."}, "[3]": {"test": "Equilibrium solubility in FeSSIF and FaSSIF", "conditions": "for solubility at 24 h: 37 °C, thermodynamic from solid, target concentration 1 mg/mL, HPLC method 1 or 2 (footnote); for impurity in solubility sample: no unit printed for impurity (column head mg/mL)", "protocol": "(§2) Solid part and liquid part were separated by filtration. Solubility was measured by HPLC. Solid part (wet cake) was investigated by XRPD."}, "[4]": {"test": "Intrinsic dissolution rate (IDR) evaluation in FaSSIF", "conditions": "FaSSIF at 37° C.", "protocol": "Only one surface of the pellet was exposed (surface area=0.50 cm^2) to 900 mL FaSSIF, the dissolution medium. Temperature of chamber medium was set as 37±0.5° C. Shaft rotation as 100 rpm and sampling time points as 2 min, 5 min, 10 min, 15 min, 20 min, 25 min, 30 min, 35 min, 40 min, 50 min, 60 min, and 120 min. 2 mL sample solution was withdrawn at each time point and centrifuged at 14,000 rpm for 5 min to isolate supernatant. Then concentration of the supernatant was analyzed by HPLC. After 120 min, XRPD of disc surface was measured."}, "[5]": {"test": "Water activity study", "conditions": "acetonitrile/water system, 5° C. and 25° C.", "text": "These solvent mixtures were saturated with the compound of Formula (I) before addition of the polymorph seeds. […] These solvent mixtures were saturated with the compound of Formula (I) before addition of the polymorph seeds. Obtained suspension was filtered. Solid part (wet cake) was investigated by XRPD."}, "[6]": {"test": "Hygroscopicity: water sorption and desorption by dynamic vapor sorption (DVS)", "protocol": "In some embodiments, the crystalline form described herein is further characterized by is further characterized by a dynamic vapor sorption (DVS) profile. In some embodiments, a DVS is recorded according to the method as described herein with a cycle of 40-0-95-0-40% RH at 25° C.\nWater sorption and desorption behaviors of Form A, Form C, Form D, and Form T were investigated by DVS at 25° C. with a cycle of 40-0-95-0-40% RH. Dm/dt was 0.002. Minimum equilibration time was 60 min. Maximum equilibration time was 360 min. XRPD was measured after DVS test to determine potential form change."}, "[7]": {"test": "Equilibrium solubility in SGF (pH 2.0), 0.1 N HCl (pH 1.2) and phosphate buffer (pH 8.0)", "conditions": "for Solubility: target concentration 1 mg/mL, HPLC method 2", "protocol": "as §2"}, "[8]": {"test": "Bulk stability of crystalline forms", "conditions": "for Purity, Bulk (HPLC): Solid state", "text": "as §1"}, "[9]": {"conditions": "25° C./92% RH, open container, 1 week"}, "[10]": {"conditions": "25° C./92% RH, open container, 2 weeks"}, "[11]": {"conditions": "40° C./75% RH, open container, 1 week"}, "[12]": {"conditions": "40° C./75% RH, open container, 2 weeks"}, "[13]": {"conditions": "60° C., tight container, 1 week"}, "[14]": {"conditions": "60° C., tight container, 2 weeks"}, "[15]": {"conditions": "FaSSIF, pH 6.5, 37° C., 24 hours"}, "[16]": {"conditions": "FeSSIF, pH 5.0, 37° C., 24 hours"}, "[17]": {"conditions": "pH 1.2 (0.1N HCl), 37° C., 24 hours"}, "[18]": {"conditions": "pH 8 (phosphate buffer), 37° C., 24 hours"}}}
{"smiles": "Nc1nc(=O)n(-c2ccccc2Cl)c2nc(C(F)(F)F)ccc12", "note": "[Form A, 4-Amino-1-(2-chlorophenyl)-7-(trifluoromethyl)pyrido[2,3-d]pyrimidin-2(1H)-one]", "values": [{"measurement": "Color", "setting": "[1]; [9]", "result": "A"}, {"measurement": "Color", "setting": "[1]; [10]", "result": "A"}, {"measurement": "Color", "setting": "[1]; [11]", "result": "A"}, {"measurement": "Color", "setting": "[1]; [12]", "result": "A"}, {"measurement": "Color", "setting": "[1]; [13]", "result": "A"}, {"measurement": "Color", "setting": "[1]; [14]", "result": "A"}, {"measurement": "XRPD after dry grinding", "setting": "[2]; Dry grinding for 1 min", "result": "substantially amorphous"}, {"measurement": "XRPD after dry grinding", "setting": "[2]; Dry grinding for 5 min", "result": "substantially amorphous"}, {"measurement": "tolerance to dry grinding", "setting": "[2]; ground manually with mortar and pestle, 5 min or 1 min, XRPD", "result": "poor tolerance"}, {"measurement": "solubility at 24 h", "setting": "[3]; FaSSIF, pH 6.5, fassif, pH 6.5, 37° C.", "result": 90, "unit": "µg/mL"}, {"measurement": "XRPD of solid after solubility test", "setting": "[3]; [15]", "result": "Form A + NaCl"}, {"measurement": "final pH", "setting": "[3]; [15]", "result": 6.5}, {"measurement": "impurity in solubility sample", "setting": "[3]; [15]", "result": "no impurity"}, {"measurement": "solubility at 24 h", "setting": "[3]; FeSSIF, pH 5, fessif, pH 5.0, 37° C.", "result": 240, "unit": "µg/mL"}, {"measurement": "final pH", "setting": "[3]; [16]", "result": 5.0}, {"measurement": "impurity in solubility sample", "setting": "[3]; [16]", "result": "no impurity"}, {"measurement": "XRPD after IDR", "setting": "[4]; disc surface after 120 min", "result": "No form change"}, {"measurement": "Concentration detected during IDR test (Comments)", "setting": "[4]; for Form V and Form A remains same during the whole process, LOQ for Form T and amorphous form", "result": "(0.006 mg/mL)"}, {"measurement": "form obtained in water activity experiments (relative stability of Forms A, C, D and E)", "setting": "[5]", "result": "highly crystalline Form A was obtained in all the solvent mixtures"}, {"measurement": "hygroscopicity", "setting": "[6]; DVS at 25° C., cycle 40-0-95-0-40% RH", "result": "slightly hygroscopic"}, {"measurement": "water uptake", "setting": "[6]; DVS, in 95% RH at 25° C.", "result": 0.7, "unit": "%"}, {"measurement": "form change after the DVS test", "setting": "[6]; XRPD after DVS", "result": "No form change"}, {"measurement": "form obtained from the solubility study in 0.1 N HCl solution", "setting": "[7]; 0.1 N HCl", "result": "Form R"}, {"measurement": "XRPD pattern after the solubility test in 0.1 N HCl and SGF", "setting": "[7]; 37° C., 24 hours", "result": "two new patterns were obtained"}, {"measurement": "form obtained from the solubility study in simulated gastric fluid", "setting": "[7]; SGF, pH 2.0", "result": "Form Q"}, {"measurement": "XRPD of solid after solubility test", "setting": "[7]; SGF, pH 2.0, 37° C., 24 hours", "result": "Form Q"}, {"measurement": "final pH", "setting": "[7]; SGF, pH 2.0, 37° C., 24 hours", "result": 2.2}, {"measurement": "Solubility", "setting": "[7]; SGF, pH 2.0, 37° C., 24 hours", "result": 0.06, "unit": "mg/mL"}, {"measurement": "XRPD of solid after solubility test", "setting": "[7]; [17]", "result": "Form R"}, {"measurement": "final pH", "setting": "[7]; [17]", "result": 1.3}, {"measurement": "Solubility", "setting": "[7]; [17]", "result": 0.10, "unit": "mg/mL"}, {"measurement": "XRPD of solid after solubility test", "setting": "[7]; [18]", "result": "Form A"}, {"measurement": "final pH", "setting": "[7]; [18]", "result": 8.0}, {"measurement": "impurity in solubility sample", "setting": "[7]; [18]", "result": "no impurity"}, {"measurement": "Solubility", "setting": "[7]; [18]", "result": 0.03, "unit": "mg/mL"}, {"measurement": "Purity, Bulk (HPLC)", "setting": "[8]; [9]", "result": 99.0, "unit": "%"}, {"measurement": "Purity, Bulk (HPLC)", "setting": "[8]; [10]", "result": 99.2, "unit": "%"}, {"measurement": "Purity, Bulk (HPLC)", "setting": "[8]; [11]", "result": 99.0, "unit": "%"}, {"measurement": "Purity, Bulk (HPLC)", "setting": "[8]; [12]", "result": 99.1, "unit": "%"}, {"measurement": "Purity, Bulk (HPLC)", "setting": "[8]; [13]", "result": 99.1, "unit": "%"}, {"measurement": "Purity, Bulk (HPLC)", "setting": "[8]; [14]", "result": 99.2, "unit": "%"}, {"measurement": "Initial purity", "setting": "[8]; before stress, HPLC", "result": 99.0, "unit": "%"}, {"measurement": "chemical stability and physical stability (bulk stability)", "setting": "[8]; stressed under 25° C./92 RH, 40% C/75% RH and 60° C., XRPD and HPLC", "result": "good chemical stability and physical stability"}]}
